The text below walks through data of ChEMBL document CHEMBL1158987, “Isolation and structure determination of novel phosphatidylinositol kinase inhibitors, echiguanines A and B, from Streptomyces sp” (J Nat Prod, 1991).

In brackets after ≈: the same amount, converted by molar mass. A value given as a limit tells only on which side of the number the result lay.

Data set [1] is described as follows: Inhibition of phosphatidylinositol 4-kinase in human A431 cell membrane by liquid scintillation counting. The class given is cell-based. Particulars: a-431.
Data set [2] in a line: Toxicity in ip dosed mouse. The format is organism-based. Particulars: in vivo.

In data set [1], `N#Cc1cn([C@@H]2O[C@H](CO)[C@@H](O)[C@H]2O)c2ncnc(N)c12` [TOYOCAMYCIN] showed a 50% inhibitory concentration (IC50) of 3.3 µg/mL (≈ 11.3 µM). On the same count and under the same terms, in the case of `O=c1c(-c2ccc(O)c(O)c2)coc2cc(O)cc(O)c12` [OROBOL] it was 0.25 µg/mL (≈ 0.873 µM); in that of `O=c1c(O)c(-c2ccc(O)c(O)c2)oc2cc(O)cc(O)c12` [QUERCETIN], 1.8 µg/mL (≈ 5.96 µM); in that of `O=c1[nH]cnc2nc[nH]c12` [HYPOXANTHINE], above 100 µg/mL. Consider `NCCCNC(=O)c1c[nH]c2nc(N)nc(O)c12` [ECHIGUANINE B], for which the LD50 in data set [2] is above 100 mg/kg. The compound further had a half-inhibitory concentration (IC50) in data set [1] of 0.11 µg/mL (≈ 0.44 µM). For `O=Cc1cccc(O)c1O`, the IC50 in data set [1] was determined as 0.45 µg/mL (≈ 3.26 µM). Same read-out and setting: for `Nc1nc(=O)[nH]c2nc[nH]c12` [ISOGUANINE] the value was above 100 µg/mL; for `Nc1nc2[nH]cnc2c(=O)[nH]1` [GUANINE], above 100 µg/mL.

In turn, `N=C(N)CCNC(=O)c1c[nH]c2nc(N)nc(O)c12` [ECHIGUANINE A] returned an LD50 in data set [2] above 100 mg/kg. The compound also yielded an IC50 in data set [1] of 0.04 µg/mL (≈ 0.152 µM). On to `Nc1[nH]cnc2ncnc1-2` [ADENINE], for which, in data set [1], the IC50 is above 100 µg/mL. Same read-out and setting: in the case of `Nc1nc2c(c(=O)[nH]1)CC=N2` [7-DEAZAGUANINE] it was 35 µg/mL (≈ 233 µM).
